Experimental data from patent US7163923B2, “Peptide deformylase activated prodrugs” (Celmed Oncology (USA), Inc., priority 2001, dated 2007).
Values after ≈ are worked out from the molar mass of the structure shown. Read-outs that look alike come from different tables or passages of the source.

Test system: S. aureus
Assay: MIC susceptibility testing (modified NCCLS, 384-well)
Assay type: cell-based
Conditions: Staphylococcus aureus, read-out: MIC
Protocol: The NCCLS (National Committee for Clinical Laboratory Standards), method to determine MIC's of antimicrobial compounds is modified for high-throughput screening. All stocks of tested compounds are prepared in either water or in DMSO depending on solubility. At the highest concentration, DMSO content should not exceed 0.5%. Briefly, twenty 2-fold serial dilutions of test compounds from the highest concentration are made in a 384-well microtiter plate. Each well is inoculated with testing bacteria in broth to a final concentration of approximately 1–1.5×10^6 cells/ml. Bacterial growth is determined by the increase of optical density at 600 nm using a microplate reader (Tecan SpectraFluor Plus). The MIC is defined as the lowest concentration at which bacterial growth (equivalent to visible growth) was inhibited after 16 to 18 hours of incubation at the appropriate temperature required for the bacteria growth.
Using the assay provided above, the potency of NB2046 was compared to triclosan.

For `CSCCC(NC=O)C(=O)NC(CC(C)C)C(=O)Oc1cc(Cl)ccc1Oc1ccc(Cl)cc1Cl` (centres unmarked) [NB2046, 2-(2-formylamino-4-methylsulfanyl-butyrylamino)-4-methyl-pentanoic acid 5-chloro-2-(2,4-dichloro-phenoxy)-phenyl ester], which MIC (ATCC11632, S. aureus ATCC 11632, Exp. #1, Table 3) is on record?
The MIC was ≤ 125 ng/mL.

And the MIC (ATCC11632, S. aureus ATCC 11632, Exp. #2, Table 3)?
The MIC was ≤ 125 ng/mL.

And the MIC (ATCC 11632 / MSSA, MSSA ATCC 11632, Exp. #1, Table 4)?
The MIC was 32000 ng/mL (≈ 56900 nM).

And the MIC (ATCC 11632 / MSSA, MSSA ATCC 11632, Exp. #2, Table 4)?
The MIC was 16000 ng/mL (≈ 28500 nM).

What about the MIC (ATCC 11632 / MSSA, MSSA ATCC 11632, Table 5) of the same compound?
The MIC was 0.977 ng/mL (≈ 1.74 nM).

And the MIC (ATCC13301, S. aureus ATCC 13301, Exp. #1, Table 3)?
The MIC was ≤ 125 ng/mL.

What about the MIC (ATCC13301, S. aureus ATCC 13301, Exp. #2, Table 3) of the same compound?
Its MIC is ≤ 125 ng/mL.

And the MIC (ATCC 13301 / MSSA, MSSA ATCC 13301, Table 5)?
Its MIC is 0.015 ng/mL (≈ 0.0267 nM).

What about the MIC (ATCC14154, S. aureus ATCC 14154, Exp. #1, Table 3) of the same compound?
The MIC was ≤ 125 ng/mL.

And the MIC (ATCC14154, S. aureus ATCC 14154, Exp. #2, Table 3)?
Its MIC is ≤ 125 ng/mL.

What about the MIC (ATCC 14154 / MSSA, MSSA ATCC 14154, Table 5) of the same compound?
The MIC was 0.977 ng/mL (≈ 1.74 nM).

And the MIC (ATCC33591, S. aureus ATCC 33591, Exp. #1, Table 3)?
The MIC was ≤ 125 ng/mL.

And the MIC (ATCC33591, S. aureus ATCC 33591, Exp. #2, Table 3)?
The MIC was ≤ 125 ng/mL.

What about the MIC (ATCC 33591 / MSSA, MSSA ATCC 33591, Table 5) of the same compound?
Its MIC is 15.6 ng/mL (≈ 27.8 nM).

And the MIC (ATCC33592, S. aureus ATCC 33592, Exp. #1, Table 3)?
Its MIC is ≤ 125 ng/mL.

What about the MIC (ATCC33592, S. aureus ATCC 33592, Exp. #2, Table 3) of the same compound?
Its MIC is ≤ 125 ng/mL.

And the MIC (ATCC 33592 / MSSA, MSSA ATCC 33592, Table 5)?
Its MIC is 0.488 ng/mL (≈ 0.868 nM).

And the MIC (ATCC33593, S. aureus ATCC 33593, Exp. #1, Table 3)?
The MIC was ≤ 125 ng/mL.

And the MIC (ATCC33593, S. aureus ATCC 33593, Exp. #2, Table 3)?
The MIC was ≤ 125 ng/mL.

What about the MIC (ATCC 33593 / MSSA, MSSA ATCC 33593, Table 5) of the same compound?
The MIC was 0.488 ng/mL (≈ 0.868 nM).

And the MIC (ATCC 33594 / MSSA, MSSA ATCC 33594, Exp. #1, Table 4)?
The MIC was ≤ 125 ng/mL.

And the MIC (ATCC 33594 / MSSA, MSSA ATCC 33594, Exp. #2, Table 4)?
Its MIC is ≤ 125 ng/mL.

And the MIC (ATCC43300, S. aureus ATCC 43300, Exp. #1, Table 3)?
The MIC was ≤ 125 ng/mL.

And the MIC (ATCC43300, S. aureus ATCC 43300, Exp. #2, Table 3)?
Its MIC is ≤ 125 ng/mL.

And the MIC (ATCC 43300 / MSSA, MSSA ATCC 43300, Table 5)?
The MIC was 0.977 ng/mL (≈ 1.74 nM).

What about the MIC (ATCC700260, S. aureus ATCC 700260, Exp. #1, Table 3) of the same compound?
The MIC was ≤ 125 ng/mL.

And the MIC (ATCC700260, S. aureus ATCC 700260, Exp. #2, Table 3)?
Its MIC is ≤ 125 ng/mL.

And the MIC (ATCC 700260 / MSSA, MSSA ATCC 700260, Exp. #1, Table 4)?
Its MIC is ≤ 125 ng/mL.

And the MIC (ATCC 700260 / MSSA, MSSA ATCC 700260, Exp. #2, Table 4)?
The MIC was 4000 ng/mL (≈ 7120 nM).

And the MIC (ATCC 700260 / MSSA, MSSA ATCC 700260, Table 5)?
The MIC was 0.031 ng/mL (≈ 0.0552 nM).

And the MIC (ATCC700698, S. aureus ATCC 700698, Exp. #1, Table 3)?
Its MIC is ≤ 125 ng/mL.

What about the MIC (ATCC700698, S. aureus ATCC 700698, Exp. #2, Table 3) of the same compound?
The MIC was ≤ 125 ng/mL.

And the MIC (ATCC 700698 / MSSA, MSSA ATCC 700698, Table 5)?
Its MIC is 3.91 ng/mL (≈ 6.95 nM).

What about the MIC (ATCC700699, S. aureus ATCC 700699, Exp. #1, Table 3) of the same compound?
The MIC was 16000 ng/mL (≈ 28500 nM).

And the MIC (ATCC700699, S. aureus ATCC 700699, Exp. #2, Table 3)?
Its MIC is 8000 ng/mL (≈ 14200 nM).

What about the MIC (ATCC 700699 / MRSA, MRSA ATCC 700699, Exp. #1, Table 4) of the same compound?
The MIC was 32000 ng/mL (≈ 56900 nM).

What about the MIC (ATCC 700699 / MRSA, MRSA ATCC 700699, Exp. #2, Table 4) of the same compound?
Its MIC is 32000 ng/mL (≈ 56900 nM).

What about the MIC (ATCC 700699 / MSSA, MSSA ATCC 700699, Table 5) of the same compound?
Its MIC is ≥ 4000 ng/mL.

What about the MIC (ATCC700787, S. aureus ATCC 700787, Exp. #1, Table 3) of the same compound?
Its MIC is ≤ 125 ng/mL.

And the MIC (ATCC700787, S. aureus ATCC 700787, Exp. #2, Table 3)?
Its MIC is ≤ 125 ng/mL.

What about the MIC (ATCC 700787 / MSSA, MSSA ATCC 700787, Table 5) of the same compound?
Its MIC is 7.81 ng/mL (≈ 13.9 nM).

And the MIC (ATCC700788, S. aureus ATCC 700788, Exp. #1, Table 3)?
Its MIC is ≤ 125 ng/mL.

What about the MIC (ATCC700788, S. aureus ATCC 700788, Exp. #2, Table 3) of the same compound?
The MIC was ≤ 125 ng/mL.

And the MIC (ATCC 700788 / MSSA, MSSA ATCC 700788, Table 5)?
The MIC was 62.5 ng/mL (≈ 111 nM).

What about the MIC (ATCC700789, S. aureus ATCC 700789, Exp. #1, Table 3) of the same compound?
Its MIC is ≤ 125 ng/mL.

And the MIC (ATCC700789, S. aureus ATCC 700789, Exp. #2, Table 3)?
Its MIC is ≤ 125 ng/mL.

What about the MIC (ATCC 700789 / MSSA, MSSA ATCC 700789, Table 5) of the same compound?
The MIC was 15.6 ng/mL (≈ 27.8 nM).
